# Laboratory results published in ChEMBL document CHEMBL1150239, “Molecular characteristics for solid-state limited solubility” (J Med Chem, 2008).
# Experiment: Dissociation constant, pKa of the compound
# Type: physicochemical
# Conditions: not given
row,SMILES,pKa
1,"CC(C(=O)O)c1ccc(N2Cc3ccccc3C2=O)cc1 (single isomer, unassigned; (+)) [INDOPROFEN]",4.6
2,CCCNC(=O)NS(=O)(=O)c1ccc(Cl)cc1 [CHLORPROPAMIDE],4.8
3,NCCN1C(=O)CN=C(c2ccccc2F)c2cc(Cl)ccc21 [DESALKYLFLURAZEPAM],11.6
4,CC(C)N(CCC(C(N)=O)(c1ccccc1)c1ccccn1)C(C)C (stereo not drawn) [DISOPYRAMIDE],10.1
5,CCOC(=O)c1ccc(O)cc1 [ETHYLPARABEN],8.3
6,O=C1Nc2ccc(Cl)cc2C(c2ccccc2Cl)=NC1O (stereo not drawn) [LORAZEPAM],11.5
7,COc1ccc2[nH]c([S+]([O-])Cc3ncc(C)c(OC)c3C)nc2c1 (stereo not drawn) [OMEPRAZOLE],8.9
8,C=CCC1(C(C)CCC)C(=O)NC(=O)NC1=O (stereo not drawn) [SECOBARBITAL],7.8

# Conditions: buffer, pH 10
row,SMILES,logS0
1,CCN1c2ncccc2C(=O)N(C)c2ccc(Cl)nc21,-4.11
2,CCN1c2ccccc2N(C)C(=O)c2cccnc21,-3.32
3,CN1C(=O)c2cccnc2N(C(C)(C)C)c2ncccc21,-4.85
4,COC(=O)c1cc2nc([S+]([O-])Cc3nccc(OC)c3OC)[nH]c2cc1C (stereo not drawn),-4.41
5,CCCCn1c(C)nc2c1c(=O)n(C)c(=O)n2C,-1.75
6,CCCCCC1(CC)C(=O)NC(=O)NC1=O,-2.34
7,CCOC(=O)OCn1c([S+]([O-])Cc2nccc(OC)c2OC)nc2cc(C(=O)OC)c(C)cc21 (stereo not drawn),-5.21
8,C=CCC1(CCCC)C(=O)NC(=O)NC1=O,-2.11
9,CCN1c2ncccc2C(=O)N(C)c2c(C)cc(OC)nc21,-2.62
10,Cc1ccnc2c1NC(C#N)c1cccnc1N2C1CC1 (stereo not drawn),-4.74
11,Cc1ccc2c(c1)C(=O)Nc1cc(N)ccc1O2,-3.93
12,CCCCC1(CC=C(C)C)C(=O)NC(=O)NC1=O,-3.55
13,CN1C(=O)c2cccnc2Oc2ccccc21,-3.76
14,"CC(C(=O)O)c1ccc(N2Cc3ccccc3C2=O)cc1 (single isomer, unassigned; (+)) [INDOPROFEN]",-4.72
15,C=CCOc1ccc(CC(=O)O)cc1Cl [ALCLOFENAC],-3.13
16,CCC[S+]([O-])CCCN(CC)CC(O)COc1ccc(C#N)cc1 (stereo not drawn) [ALMOKALANT],-1.17
17,C=CCc1ccccc1OCC(O)CNC(C)C (stereo not drawn) [ALPRENOLOL],-2.83
18,CCCCC[C@H](O)/C=C/[C@H]1[C@H](O)CC(=O)[C@@H]1CCCCCCC(=O)O [ALPROSTADIL],-3.67
19,CCOC(=O)c1ccc(N)cc1 [BENZOCAINE],-2.34
20,O=C(O)c1ccccc1 [BENZOIC ACID],-1.58
21,C[C@H]1C[C@H]2[C@@H]3CCC4=CC(=O)C=C[C@]4(C)[C@@]3(F)[C@@H](O)C[C@]2(C)[C@@]1(O)C(=O)CO [BETAMETHASONE],-3.77
22,C=C(Br)CC1(C(C)CC)C(=O)NC(=O)NC1=O (stereo not drawn) [BUTALLYLONAL],-2.65
23,CCCNC(=O)NS(=O)(=O)c1ccc(Cl)cc1 [CHLORPROPAMIDE],-3.3
24,COC(=O)[C@H]1[C@@H](OC(=O)c2ccccc2)C[C@@H]2CC[C@H]1N2C [COCAINE],-2.25
25,C[C@]12C[C@H](O)[C@H]3[C@@H](CCC4=CC(=O)CC[C@@]43C)[C@@H]1CC[C@@H]2C(=O)CO [CORTICOSTERONE],-3.28
26,CC(=O)OCC(=O)[C@@]1(O)CC[C@H]2[C@@H]3CCC4=CC(=O)CC[C@]4(C)[C@H]3C(=O)C[C@@]21C [CORTISONE ACETATE],-4.21
27,CCC1(C2=CCCCC2)C(=O)NC(=O)NC1=O [CYCLOBARBITAL],-2.12
28,CC(C)Nc1cccnc1N1CCN(C(=O)c2cc3cc(NS(C)(=O)=O)ccc3[nH]2)CC1 [DELAVIRDINE],-5.74

row,SMILES,logS0
1,NCCN1C(=O)CN=C(c2ccccc2F)c2cc(Cl)ccc21 [DESALKYLFLURAZEPAM],-3.72
2,C[C@@H]1C[C@H]2[C@@H]3CCC4=CC(=O)C=C[C@]4(C)[C@@]3(F)[C@@H](O)C[C@]2(C)[C@@]1(O)C(=O)CO [DEXAMETHASONE],-3.59
3,CCCCC[C@H](O)/C=C/[C@H]1[C@H](O)CC(=O)[C@@H]1C/C=C\CCCC(=O)O [DINOPROSTONE],-2.47
4,CC(C)N(CCC(C(N)=O)(c1ccccc1)c1ccccn1)C(C)C (stereo not drawn) [DISOPYRAMIDE],-2.38
5,CCOC(=O)c1ccc(O)cc1 [ETHYLPARABEN],-2.38
6,COC1=CC(=O)C[C@@H](C)[C@]12Oc1c(Cl)c(OC)cc(OC)c1C2=O [GRISEOFULVIN],-4.83
7,CCC1(C2=CCCCCC2)C(=O)NC(=O)NC1=O [HEPTABARBITAL],-2.91
8,CC(=O)OCC(=O)[C@@]1(O)CC[C@H]2[C@@H]3CCC4=CC(=O)CC[C@]4(C)[C@H]3[C@@H](O)C[C@@]21C [HYDROCORTISONE ACETATE],-4.34
9,CC(=O)N1CCN(c2ccc(OC[C@H]3CO[C@](Cn4ccnc4)(c4ccc(Cl)cc4Cl)O3)cc2)CC1 [KETOCONAZOLE],-3.8
10,CC(CCc1ccccc1)NCC(O)c1ccc(O)c(C(N)=O)c1 (stereo not drawn) [LABETALOL],-3.41
11,O=C1Nc2ccc(Cl)cc2C(c2ccccc2Cl)=NC1O (stereo not drawn) [LORAZEPAM],-3.74
12,Cc1ccccc1N1C(=O)c2cc(S(N)(=O)=O)c(Cl)cc2NC1C (stereo not drawn) [METOLAZONE],-4.33
13,COc1ccc2[nH]c([S+]([O-])Cc3ncc(C)c(OC)c3C)nc2c1 (stereo not drawn) [OMEPRAZOLE],-3.4
14,Nc1ccc(/N=N/c2ccccc2)c(N)n1 [PHENAZOPYRIDINE],-4.53
15,O=C1NC(=O)C(c2ccccc2)(c2ccccc2)N1 [PHENYTOIN],-4.15
16,CN1C(C(=O)Nc2ccccn2)=C(O)c2ccccc2S1(=O)=O [PIROXICAM],-4.03
17,CC(=O)OCC(=O)[C@@]1(O)CC[C@H]2[C@@H]3CCC4=CC(=O)C=C[C@]4(C)[C@H]3[C@@H](O)C[C@@]21C [PREDNISOLONE ACETATE],-4.37
18,COc1cc(NC(C)CCCN)c2ncccc2c1 (stereo not drawn) [PRIMAQUINE],-2.52
19,CCN(CC)CCOC(=O)c1ccc(N)cc1 [PROCAINE],-1.78
20,CC(C)NCC(O)COc1cccc2ccccc12 (stereo not drawn) [PROPRANOLOL],-3.92
21,CCC1(C2=CC3CCC(C2)C3)C(=O)NC(=O)NC1=O (stereo not drawn) [REPOSAL],-2.7
22,O=C(O)c1ccccc1O [SALICYLIC ACID],-1.8
23,C=CCC1(C(C)CCC)C(=O)NC(=O)NC1=O (stereo not drawn) [SECOBARBITAL],-2.36
24,CC(=O)OCC(=O)[C@@]1(O)[C@H](OC(C)=O)C[C@H]2[C@@H]3CCC4=CC(=O)C=C[C@]4(C)[C@@]3(F)[C@@H](O)C[C@@]21C [TRIAMCINOLONE DIACETATE],-4.31
25,Cc1nnc2n1-c1ccc(Cl)cc1C(c1ccccc1Cl)=NC2 [TRIAZOLAM],-4.04
26,COc1cc2c(N)nc(N3CCN(C(=O)OCC(C)(C)O)CC3)nc2c(OC)c1OC [TRIMAZOSIN],-3.64
27,CC/C=C(\C)C1(CC)C(=O)NC(=O)NC1=O [VINBARBITAL],-2.3
